Source: paper PMC6367708 (Journal of medicinal chemistry, 2018)

Tests used:
CYP17A1 [1] = molecular target: T1, CYP17A1 (Homo sapiens, UniProt P05093); test: Inhibition of CYP17A1-mediated progesterone 17α-hydroxylation; assay type: biochemical; conditions: for increase in IC50 for CYP17A1: relative to abiraterone
T1 sequence (P05093 with tags, fused parts or gaps limits assumed): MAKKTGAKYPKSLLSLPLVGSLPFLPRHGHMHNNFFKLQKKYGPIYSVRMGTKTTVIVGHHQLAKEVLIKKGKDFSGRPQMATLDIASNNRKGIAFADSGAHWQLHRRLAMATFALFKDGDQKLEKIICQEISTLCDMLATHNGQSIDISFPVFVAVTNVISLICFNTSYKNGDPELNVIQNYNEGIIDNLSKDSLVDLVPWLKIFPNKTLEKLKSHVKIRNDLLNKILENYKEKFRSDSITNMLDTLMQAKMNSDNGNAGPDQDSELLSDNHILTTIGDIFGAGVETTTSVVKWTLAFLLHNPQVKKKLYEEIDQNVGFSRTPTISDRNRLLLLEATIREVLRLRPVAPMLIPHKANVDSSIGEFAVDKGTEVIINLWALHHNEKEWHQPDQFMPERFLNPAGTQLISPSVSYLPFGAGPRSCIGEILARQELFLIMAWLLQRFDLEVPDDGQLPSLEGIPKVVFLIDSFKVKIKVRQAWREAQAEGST

CYP21A2 [2] = molecular target: T2, CYP21A2 (Homo sapiens, UniProt P08686); test: Inhibition of CYP21A2-mediated progesterone 21-hydroxylation; assay type: biochemical
T2 sequence (P08686 with tags, fused parts or gaps): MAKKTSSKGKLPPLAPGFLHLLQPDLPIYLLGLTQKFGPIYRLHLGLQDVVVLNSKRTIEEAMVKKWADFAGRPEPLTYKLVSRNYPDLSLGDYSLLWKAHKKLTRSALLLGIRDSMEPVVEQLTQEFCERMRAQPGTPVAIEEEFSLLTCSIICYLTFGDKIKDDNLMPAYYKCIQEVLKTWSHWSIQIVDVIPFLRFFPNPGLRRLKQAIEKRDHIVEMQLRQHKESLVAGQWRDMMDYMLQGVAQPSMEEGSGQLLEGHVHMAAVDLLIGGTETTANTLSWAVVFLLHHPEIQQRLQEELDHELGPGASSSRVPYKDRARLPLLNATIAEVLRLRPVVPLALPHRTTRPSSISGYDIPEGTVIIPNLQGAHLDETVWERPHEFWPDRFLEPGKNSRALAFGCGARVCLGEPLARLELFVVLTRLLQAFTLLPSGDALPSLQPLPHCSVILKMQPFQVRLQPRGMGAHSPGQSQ

CYP17A1 [3] = molecular target: T1, CYP17A1; conditions: reported; cited from earlier work
CYP21A2 [4] = test: Inhibition of CYP21A2-mediated progesterone 21-hydroxylation; assay type: biochemical, human

With `C[C@]12CC[C@H](O)C[C@@H]1C(=NO)C[C@@H]1[C@@H]2CC[C@]2(C)C(c3cccnc3)=CC[C@@H]12` [13b, 3β-Hydroxy-17-(3-pyridyl)-5α-androst-16-en-6-one oxime] the IC50 (CYP17A1 [1]) was 16.5 ± 2.5 nM, the “increase in IC50 for CYP17A1” value (CYP17A1 [1]) was “ca. 3 fold” and the IC50 (CYP21A2 [2]) was 1390 ± 120 nM. The “increase in IC50 for CYP21A2” value (CYP21A2 [2]; relative to abiraterone) was 43 fold.
For `C[C@]12CCC(=O)C=C1CC[C@@H]1[C@@H]2CC[C@]2(C)C(c3cccnc3)=CC[C@@H]12` [compound 4, 17-(3-Pyridyl)androsta-4,16-dien-3-one], the “inhibition of CYP17A1” value (CYP17A1 [3]) is listed as “comparably to abiraterone itself”, the “selectivity for CYP21A2 over CYP17A1” value (CYP21A2 [4]) is listed as 8.8 times and the “decrease in the IC50 for CYP21A2” value (CYP21A2 [2]; relative to abiraterone) is listed as 46 fold.
In the case of `C[C@]12CC[C@H](O)C[C@@H]1NC(=O)C[C@@H]1[C@@H]2CC[C@]2(C)C(c3cccnc3)=CC[C@@H]12` [14b, 6-Aza-7-oxo-17-(3-pyridyl)-B-homo-5α-androst-16-en-3β-ol], the “selectivity for CYP17A1 inhibition over CYP21A2 inhibition” value (CYP17A1 [1]; progesterone hydroxylation reactions) is reported as “ca. 16 fold”.
In the case of `C[C@]12CC[C@H](O)CC1=C(C(N)=O)C[C@@H]1[C@@H]2CC[C@]2(C)C(c3cccnc3)=CC[C@@H]12` [compound 8, 3β-Hydroxy-17-(3-pyridyl)androsta-5,16-dien-6-carboxamide], the “increase in IC50 for CYP17A1” value (CYP17A1 [1]) is reported as 4.6 fold and the “increase in IC50 for CYP21A2” value (CYP21A2 [2]; relative to abiraterone) is reported as 20 fold.
With `C[C@]12CC[C@H](O)CC1=CC[C@@H]1[C@@H]2CC[C@]2(C)C(c3ccccc3)=CC[C@@H]12` [3b, 17-Phenylandrosta-5,16-dien-3β-ol] the “increase in IC50 for CYP17A1” value (CYP17A1 [1]) was “more than 4,000 fold” and the “increase in IC50 for CYP21A2” value (CYP21A2 [2]; relative to abiraterone) was over 20 fold.
`C[C@]12CC[C@H]3[C@@H](C[C@@H]4O[C@@]45C[C@@H](O)CC[C@]35C)[C@@H]1CC=C2c1cccnc1` [6b, 5α,6α-Epoxy-17-(3-pyridyl)androst-16-en-3β-ol] gave an IC50 (CYP17A1 [1]) of 7.83 ± 0.92 nM and an IC50 (CYP21A2 [2]) of 42.1 ± 8.5 nM.
In the case of `C[C@]12CC[C@H](O)CC1=C(C#N)C[C@@H]1[C@@H]2CC[C@]2(C)C(c3cccnc3)=CC[C@@H]12` [compound 7, 3β-Hydroxy-17-(3-pyridyl)androsta-5,16-dien-6-carbonitrile], the “increase in IC50 for CYP17A1” value (CYP17A1 [1]) is reported as 3 fold.
